Source: PubChem BioAssay (NCI)
Where “and” joins values, the source holds several entries; their conditions need not be identical. Equal values may be shown once.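 Exposure lasted 48 hours, with cells grown in 96-well plates and compounds tested at five concentrations. GI50 marks 50% less growth. At the TGI there is no net growth.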

Columns and labels:
Assay in all cases: NCI-60 cell line screen, 48 h
[1] = tested on: DU-145 prostate
[2] = tested on: OVCAR-4 ovarian
[3] = tested on: NCI-H226 lung
[4] = tested on: NCI/ADR-RES ovarian
[5] = tested on: A549 NSCLC
[6] = tested on: MOLT-4 leukemia
[7] = tested on: MCF7 breast
[8] = tested on: HT29 colon
[9] = tested on: SK-OV-3 ovarian
[10] = tested on: 786-0 renal

Structure (SMILES)	TGI [1]	TGI [2]	TGI [3]	TGI [4]	TGI [5]	TGI [6]	TGI [7]	TGI [8]	TGI [9]	TGI [10]	GI50 [1]	GI50 [2]	GI50 [3]	GI50 [4]	GI50 [5]	GI50 [6]	GI50 [7]	GI50 [8]	GI50 [9]	GI50 [10]
Cc1cc(=O)oc2cc(OC(=O)Nc3ccc(Cl)c(Cl)c3)ccc12	90.5 µM	> 100 µM	46.6 µM	> 100 µM	82.1 µM	44.4 µM	> 100 µM	75.4 µM	88.4 µM	> 100 µM	–	–	–	–	–	–	–	–	–	–
CC(C)(C)OC(=O)NCCCCCCCCn1c2c(c3ccccc3c1=O)C(=O)c1ccccc1-2	> 50 µM	> 50 µM	> 50 µM	> 50 µM	> 50 µM	> 50 µM	> 50 µM	> 50 µM	> 39.4 µM	27.5 µM	> 50 µM	> 50 µM	22.3 µM	> 42.1 µM	> 50 µM	> 50 µM	> 50 µM	> 50 µM	14.4 µM	10.8 µM
O=C(O)CCC1COc2ccccc2O1 (stereo unspecified)	> 10 µM	> 10 µM	> 10 µM	> 10 µM	> 10 µM	> 10 µM	> 10 µM	> 10 µM	> 10 µM	> 10 µM	–	–	–	–	–	–	–	–	–	–
O=C(Oc1ccc([N+](=O)[O-])cc1)N1CCN(Cc2cccc(Oc3ccccc3)c2)CC1	> 100 µM	> 100 µM	> 100 µM	> 100 µM	> 100 µM	> 100 µM	> 100 µM	> 100 µM	> 100 µM	> 100 µM	> 100 µM	> 44.8 µM	> 100 µM	> 100 µM	> 73.6 µM	38.9 µM	37.1 µM	40.6 µM	> 100 µM	> 100 µM
COc1cc(/C=C/C(=O)c2cc(F)c(Cl)cc2Cl)cc(OC)c1OC	> 100 µM	> 100 µM	> 100 µM	83.8 µM	> 100 µM	52.9 µM	> 100 µM	45 µM	> 100 µM	97.2 µM	68.6 µM	48.6 µM	79.9 µM	23.9 µM	39.2 µM	12.9 µM	32.3 µM	15.2 µM	> 100 µM	22.9 µM
CN1CCN(c2ccc(-c3cnc4c(-c5csc6ccccc56)cnn4c3)cc2)CC1	> 15 µM	> 15 µM	> 15 µM	> 15 µM	11.4 µM	> 15 µM	> 15 µM	> 15 µM	> 15 µM	12.3 µM	5.59 µM	11.2 µM	13.5 µM	6.2 µM	3.11 µM	4.1 µM	2.58 µM	1.19 µM	> 15 µM	4.35 µM
COc1cccc(/C=C/C(=O)c2ccc(Cl)cc2Cl)c1OC	27.5 µM	34 µM	29.6 µM	25.2 µM	24.7 µM	12.4 µM	32 µM	17.3 µM	28.7 µM	21.9 µM	11.4 µM	11.3 µM	9.96 µM	11.1 µM	10.4 µM	3.04 µM	4.52 µM	5.04 µM	15.4 µM	10.3 µM
NC1=NC(c2ccccc2)N=C(Nc2ccccc2)N1 (stereo unspecified)	> 100 µM	> 100 µM	> 100 µM	> 100 µM	> 100 µM	> 100 µM	> 100 µM	> 100 µM	> 100 µM	> 100 µM	> 100 µM	> 100 µM	> 100 µM	> 100 µM	> 100 µM	> 100 µM	38.5 µM	> 100 µM	> 100 µM	> 100 µM
NC(=O)c1[nH]nc(C2OC(CO)C(O)C2O)c1O (stereo unspecified)	> 5000 µM	520 µM	2220 µM	105 µM	289 µM	386 µM	1060 µM	3420 µM	460 µM	> 2870 µM	–	–	–	–	–	–	–	–	–	–
Cc1ccc(N=C2CSc3nnc(-c4csc5c4CCCC5)n3N2)cc1	> 50 µM	> 50 µM	> 50 µM	> 50 µM	> 50 µM	> 50 µM	> 50 µM	> 50 µM	> 50 µM	> 50 µM	0.209 µM	> 50 µM	> 50 µM	0.167 µM	0.265 µM	0.213 µM	0.165 µM	0.175 µM	0.271 µM	0.297 µM
O=C1C=CC(=O)C1(Br)Br	39 µM	33.2 µM	38.2 µM	68.3 µM	31.7 µM	> 100 µM	34.6 µM	32.7 µM	43.2 µM	23.8 µM	–	–	–	–	–	–	–	–	–	–
COc1cc(-c2oc3c(OC)c(OC)cc(O)c3c(=O)c2OC)ccc1O	> 50 µM	> 100 µM	9.68 µM and > 50 µM	> 50 µM	> 50 µM	31.5 µM	> 50 µM	> 100 µM	14.3 µM	> 100 µM	–	> 100 µM and 11.4 µM	3.88 µM and 12.4 µM	–	–	–	–	–	–	–
CCC(=O)OC1CCn2c1nc1c2C(=O)C(C)=C(N2CC2)C1=O (stereo unspecified)	0.0503 µM	0.291 µM and 0.667 µM	0.441 µM and 0.319 µM	0.4 µM	–	> 83.6 µM	0.0569 µM	1.09 µM and 0.495 µM	0.255 µM and 0.283 µM	–	–	0.293 µM	0.186 µM	–	0.0233 µM	1.46 µM	–	–	0.0407 µM	0.017 µM
NCCNCC(O)CO (stereo unspecified)	> 100 µM	> 100 µM	> 100 µM	> 100 µM	> 100 µM	> 100 µM	> 100 µM	> 100 µM	> 100 µM	> 100 µM	–	–	–	–	–	–	–	–	–	–
CC(CN)[C@@H]1CC[C@]2(CO)CC[C@]3(C)[C@H](CC[C@@H]4[C@@]5(C)CCC(NCCO)C(C)(C)[C@@H]5CC[C@]43C)[C@@H]12 (stereo partly specified)	5.32 µM	9.09 µM	17.5 µM	22.2 µM	3.08 µM	4.28 µM	3.62 µM	3.26 µM	25.2 µM	3 µM	2.34 µM	2.7 µM	3.94 µM	6.83 µM	1.68 µM	1.56 µM	1.78 µM	1.62 µM	12.5 µM	1.55 µM
